Source: ChEMBL document CHEMBL2331530, “Novel 3-O-carbamoyl erythromycin A derivatives (carbamolides) with activity against resistant staphylococcal and streptococcal isolates” (2013)
Converted amounts (≈) assume the structure as drawn.

Assays:
Type in all cases: functional
[1] = tested on: Staphylococcus epidermidis; assay: Antibacterial activity against macrolides, lincosamides, streptogramin B and methicillin-resistant Staphylococcus epidermidis 1105-00 assessed as growth inhibition
[2] = tested on: Staphylococcus aureus; assay: Antibacterial activity against macrolides, lincosamides, streptogramin B and methicillin-resistant Staphylococcus aureus 1609-09 harboring cfr gene assessed as growth inhibition
[3] = tested on: Staphylococcus aureus; assay: Antibacterial activity against methicillin-resistant Staphylococcus aureus 2111-10-USA300 harboring cfr gene assessed as growth inhibition
[4] = tested on: Streptococcus pyogenes; assay: Antibacterial activity against macrolides, lincosamides, and streptogramin B-resistant Streptococcus pyogenes 1304-00 assessed as growth inhibition
[5] = tested on: Staphylococcus aureus; assay: Antibacterial activity against methicillin-resistant Staphylococcus aureus 1279-07 harboring cfr gene assessed as growth inhibition
[6] = tested on: Streptococcus pneumoniae; assay: Antibacterial activity against macrolides, lincosamides, and streptogramin B-resistant Streptococcus pneumoniae 1243-00 assessed as growth inhibition
[7] = tested on: Staphylococcus aureus; assay: Antibacterial activity against Staphylococcus aureus ATCC 29213 assessed as growth inhibition
[8] = tested on: Staphylococcus aureus; assay: Antibacterial activity against macrolides, lincosamides, streptogramin B and methicillin-resistant Staphylococcus aureus 1015-00 assessed as growth inhibition
[9] = tested on: Staphylococcus aureus; assay: Antibacterial activity against methicillin-resistant Staphylococcus aureus 1281-07 harboring cfr gene assessed as growth inhibition
[10] = tested on: Staphylococcus aureus; assay: Antibacterial activity against methicillin-resistant Staphylococcus aureus 1279-07-USA300 assessed as growth inhibition

Structure (SMILES)	MIC [1] [µg/mL]	MIC [2] [µg/mL]	MIC [3] [µg/mL]	MIC [4] [µg/mL]	MIC [5] [µg/mL]	MIC [6] [µg/mL]	MIC [7] [µg/mL]	MIC [8] [µg/mL]	MIC [9] [µg/mL]	MIC [10] [µg/mL]
CC[C@H]1OC(=O)[C@H](C)[C@@H](OC(=O)N2CC(C)(C)C[C@@H]2c2cccc3c2OCO3)[C@H](C)[C@@H](O[C@@H]2O[C@H](C)C[C@H](N(C)C)[C@H]2O)[C@](C)(OC)C[C@@H](C)C(=O)[C@H](C)[C@H]2NC(=O)O[C@@]21C	16 (≈ 18.6 µM)	> 64	0.125 (≈ 0.145 µM)	0.03 (≈ 0.0349 µM)	0.125 (≈ 0.145 µM)	0.03 (≈ 0.0349 µM)	0.125 (≈ 0.145 µM)	64 (≈ 74.4 µM)	0.125 (≈ 0.145 µM)	0.5 (≈ 0.581 µM)
CC[C@H]1OC(=O)[C@H](C)[C@@H](OC(=O)N2CC(C)(C)C[C@@H]2c2ccc(Cl)c(Cl)c2)[C@H](C)[C@@H](O[C@@H]2O[C@H](C)C[C@H](N(C)C)[C@H]2O)[C@](C)(OC)C[C@@H](C)C(=O)[C@H](C)[C@H]2NC(=O)O[C@@]21C	64 (≈ 72.3 µM)	64 (≈ 72.3 µM)	0.25 (≈ 0.283 µM)	0.125 (≈ 0.141 µM)	0.25 (≈ 0.283 µM)	0.125 (≈ 0.141 µM)	0.25 (≈ 0.283 µM)	64 (≈ 72.3 µM)	0.25 (≈ 0.283 µM)	2 (≈ 2.26 µM)
CC[C@H]1OC(=O)[C@H](C)[C@@H](OC(=O)N2CCC[C@@H]2c2ccccc2)[C@H](C)[C@@H](O[C@@H]2O[C@H](C)C[C@H](N(C)C)[C@H]2O)[C@](C)(OC)C[C@@H](C)C(=O)[C@H](C)[C@H]2NC(=O)O[C@@]21C	> 64	> 64	> 64	> 64	> 64	> 64	0.5 (≈ 0.635 µM)	> 64	0.25 (≈ 0.317 µM)	> 64
CC[C@H]1OC(=O)[C@H](C)[C@@H](OC(=O)N2CC(C)(C)C[C@@H]2c2cccc(Cl)c2Cl)[C@H](C)[C@@H](O[C@@H]2O[C@H](C)C[C@H](N(C)C)[C@H]2O)[C@](C)(OC)C[C@@H](C)C(=O)[C@H](C)[C@H]2NC(=O)O[C@@]21C	16 (≈ 18.1 µM)	64 (≈ 72.3 µM)	0.5 (≈ 0.565 µM)	1 (≈ 1.13 µM)	0.5 (≈ 0.565 µM)	1 (≈ 1.13 µM)	0.5 (≈ 0.565 µM)	32 (≈ 36.2 µM)	0.25 (≈ 0.283 µM)	2 (≈ 2.26 µM)
CC[C@H]1OC(=O)[C@H](C)[C@@H](OC(=O)N2CCCC2)[C@H](C)[C@@H](O[C@@H]2O[C@H](C)C[C@H](N(C)C)[C@H]2O)[C@](C)(OC)C[C@@H](C)C(=O)[C@H](C)[C@H]2NC(=O)O[C@@]21C	1 (≈ 1.4 µM)	16 (≈ 22.5 µM)	16 (≈ 22.5 µM)	0.5 (≈ 0.702 µM)	16 (≈ 22.5 µM)	0.5 (≈ 0.702 µM)	4 (≈ 5.62 µM)	4 (≈ 5.62 µM)	32 (≈ 45 µM)	2 (≈ 2.81 µM)
CC[C@H]1OC(=O)[C@H](C)[C@@H](OC(=O)N2CC(C)(C)C[C@@H]2c2ccc3c(c2)OCO3)[C@H](C)[C@@H](O[C@@H]2O[C@H](C)C[C@H](N(C)C)[C@H]2O)[C@](C)(OC)C[C@@H](C)C(=O)[C@H](C)[C@H]2NC(=O)O[C@@]21C	> 64	> 64	0.25 (≈ 0.291 µM)	2 (≈ 2.33 µM)	0.25 (≈ 0.291 µM)	0.5 (≈ 0.581 µM)	0.25 (≈ 0.291 µM)	> 64	0.25 (≈ 0.291 µM)	4 (≈ 4.65 µM)
CC[C@H]1OC(=O)[C@H](C)[C@@H](O[C@H]2C[C@@](C)(OC)[C@@H](O)[C@H](C)O2)[C@H](C)[C@@H](O[C@@H]2O[C@H](C)C[C@H](N(C)C)[C@H]2O)[C@](C)(OC)C[C@@H](C)C(=O)[C@H](C)[C@@H](O)[C@]1(C)O [CLARITHROMYCIN]	8 (≈ 10.7 µM)	16 (≈ 21.4 µM)	0.5 (≈ 0.668 µM)	0.25 (≈ 0.334 µM)	0.5 (≈ 0.668 µM)	0.125 (≈ 0.167 µM)	0.5 (≈ 0.668 µM)	16 (≈ 21.4 µM)	0.25 (≈ 0.334 µM)	1 (≈ 1.34 µM)
CC[C@H]1OC(=O)[C@H](C)[C@@H](OC(=O)N2CC(C)(C)C[C@@H]2c2cccc(Cl)c2)[C@H](C)[C@@H](O[C@@H]2O[C@H](C)C[C@H](N(C)C)[C@H]2O)[C@](C)(OC)C[C@@H](C)C(=O)[C@H](C)[C@H]2NC(=O)O[C@@]21C	64 (≈ 75.3 µM)	> 64	0.25 (≈ 0.294 µM)	0.03 (≈ 0.0353 µM)	0.25 (≈ 0.294 µM)	0.03 (≈ 0.0353 µM)	0.25 (≈ 0.294 µM)	> 64	0.125 (≈ 0.147 µM)	0.25 (≈ 0.294 µM)
CC[C@H]1OC(=O)[C@H](C)[C@@H](OC(=O)N2CC(C)(C)C[C@@H]2c2cccnc2)[C@H](C)[C@@H](O[C@@H]2O[C@H](C)C[C@H](N(C)C)[C@H]2O)[C@](C)(OC)C[C@@H](C)C(=O)[C@H](C)[C@H]2NC(=O)O[C@@]21C	16 (≈ 19.6 µM)	> 64		0.03 (≈ 0.0367 µM)		0.03 (≈ 0.0367 µM)	4 (≈ 4.9 µM)	> 64		> 64
CC[C@H]1OC(=O)[C@H](C)[C@@H](OC(=O)N2CC(C)(C)C[C@@H]2c2ccc(Cl)cc2)[C@H](C)[C@@H](O[C@@H]2O[C@H](C)C[C@H](N(C)C)[C@H]2O)[C@](C)(OC)C[C@@H](C)C(=O)[C@H](C)[C@H]2NC(=O)O[C@@]21C	64 (≈ 75.3 µM)	> 64	0.25 (≈ 0.294 µM)	0.125 (≈ 0.147 µM)	0.25 (≈ 0.294 µM)	0.125 (≈ 0.147 µM)	0.25 (≈ 0.294 µM)	> 64	0.25 (≈ 0.294 µM)	0.5 (≈ 0.588 µM)
CC[C@H]1OC(=O)[C@H](C)[C@@H](OC(=O)N2CCC[C@H]2c2ccccc2)[C@H](C)[C@@H](O[C@@H]2O[C@H](C)C[C@H](N(C)C)[C@H]2O)[C@](C)(OC)C[C@@H](C)C(=O)[C@H](C)[C@H]2NC(=O)O[C@@]21C	> 64	> 64	0.5 (≈ 0.635 µM)	> 64	> 64	> 64	2 (≈ 2.54 µM)	> 64	0.5 (≈ 0.635 µM)	> 64
CC[C@H]1OC(=O)[C@H](C)[C@@H](OC(=O)N2CCC[C@@H]2c2cccnc2)[C@H](C)[C@@H](O[C@@H]2O[C@H](C)C[C@H](N(C)C)[C@H]2O)[C@](C)(OC)C[C@@H](C)C(=O)[C@H](C)[C@H]2NC(=O)O[C@@]21C	> 64	> 64	0.25 (≈ 0.317 µM)	0.5 (≈ 0.634 µM)	16 (≈ 20.3 µM)	0.5 (≈ 0.634 µM)	0.25 (≈ 0.317 µM)	> 64	0.125 (≈ 0.158 µM)	16 (≈ 20.3 µM)
CC[C@H]1OC(=O)[C@H](C)[C@@H](OC(=O)N2CC(C)(C)C[C@@H]2c2ccc(Cl)cc2Cl)[C@H](C)[C@@H](O[C@@H]2O[C@H](C)C[C@H](N(C)C)[C@H]2O)[C@](C)(OC)C[C@@H](C)C(=O)[C@H](C)[C@H]2NC(=O)O[C@@]21C	8 (≈ 9.04 µM)	64 (≈ 72.3 µM)	0.25 (≈ 0.283 µM)	0.03 (≈ 0.0339 µM)	0.25 (≈ 0.283 µM)	0.015 (≈ 0.017 µM)	0.25 (≈ 0.283 µM)	32 (≈ 36.2 µM)	0.25 (≈ 0.283 µM)	0.5 (≈ 0.565 µM)
CC(=O)NC[C@H]1CN(c2ccc(N3CCOCC3)c(F)c2)C(=O)O1 [LINEZOLID]	8 (≈ 23.7 µM)	8 (≈ 23.7 µM)	0.5 (≈ 1.48 µM)	0.125 (≈ 0.371 µM)	0.5 (≈ 1.48 µM)	0.125 (≈ 0.371 µM)	0.5 (≈ 1.48 µM)	8 (≈ 23.7 µM)	0.5 (≈ 1.48 µM)	1 (≈ 2.96 µM)
CC[C@H]1OC(=O)[C@H](C)[C@@H](OC(=O)N2CC(C)(C)C[C@@H]2c2ccccc2Cl)[C@H](C)[C@@H](O[C@@H]2O[C@H](C)C[C@H](N(C)C)[C@H]2O)[C@](C)(OC)C[C@@H](C)C(=O)[C@H](C)[C@H]2NC(=O)O[C@@]21C	64 (≈ 75.3 µM)	64 (≈ 75.3 µM)	0.25 (≈ 0.294 µM)	0.25 (≈ 0.294 µM)	0.25 (≈ 0.294 µM)	0.25 (≈ 0.294 µM)	0.25 (≈ 0.294 µM)	64 (≈ 75.3 µM)	0.25 (≈ 0.294 µM)	2 (≈ 2.35 µM)
